Measurements published in patent US20240192235A1, “CERAMIDE AND SPINGOMYELIN IN NEUROLOGICAL DISORDERS” (Duke University, priority 2021, published 2024).

How the values were obtained:
[1] = cited from earlier work
SP1 R1 = SP1 R1 (Homo sapiens, UniProt P21453); settings: cited from earlier work
WT and APP/PS1 mice [2] = assay: Barnes Maze task; type: in vivo; settings: 1 mg/kg/day for eight weeks, probe trial
Description: (§1) APPswe/PS1dE9 (referred to as APP/PS1) and C57BI/6J (referred to as WT) mice were purchased from The Jackson Laboratory. The APP/PS1 is a double transgenic mouse expressing a chimeric mouse/human amyloid precursor protein (Mo/HuAPP695swe) and a mutant human presenilin 1 (PS1-dE9), both directed to CNS neurons. 50% of animals used in all experiments were male.
(§2) APP/PS1 mice and their WT littermates were used to examine fingolimod effects in vivo. Fingolimod treatment was provided in drinking water in a dark container and changed every 48 h to provide 1 mg/kg/day.
The behavioral apparatus consisted of a white flat, circular disk with 20 holes around its perimeter. One hole held the entrance to a darkened escape box not visible from the surface of the board, allowing the subject to exit the maze. The escape chamber position remained fixed during all trials. Mice learn the location of the escape hole using spatial reference points that were fixed in relation to the maze (extra-maze cues). The task consisted of one habituation trial on day 1 where the escape hole was presented to the animal, the animal remained in the escape box for 2 min. […] All sessions were recorded using Debut video software and assessed through ANY-maze software. For each trial, several parameters were recorded to assess performance. […] For the probe trial, time spent in the target quadrant and target hole were analyzed. […]

WT and APP/PS1 mice [3] = assay: Novel object recognition (NOR) test; type: in vivo; settings: 1 mg/kg/day for eight weeks
Description: as §1, §2
Mice were habituated to experimental apparatus consisting of a gray rectangular open field (60 cm×50 cm×26 cm) for 5 min in the absence of any objects for 3 days. On the third day, after the habituation trial, mice were placed in the experimental apparatus in the presence of two identical objects and allowed to explore them for 5 min. […] All sessions were recorded using Noldus Media Recorder software. Exploration of the objects was defined as the mice facing and sniffing the objects within 2 cm distance and/or touching them, assessed with ANY-maze software. The ability of the mouse to recognize the novel object (discrimination index) was determined by dividing the mean time exploring the novel object by the mean of the total time exploring the novel and familiar objects during the test session. […]

[4] = Fingolimod plasma concentration after oral administration to WT mice (UHPLC, MS-MS); type: in vivo; settings: both sexes, C57BL/6J, mouse, oral 1 mg/kg/day, read-out: Fingolimod levels in plasma
Procedure: To determine if fingolimod (e.g., Gilenya®, Novartis) oral administration achieves appropriate plasma concentration, 8 WT mice at 7 months old (50% females) were treated with fingolimod at 1 mg/kg/day for 4 wks. Plasma samples were collected at two time points (2nd and 4th weeks) after treatment and analyzed by UHPLC and MS-MS. Fingolimod levels in plasma were in ng/mL: 2nd week=8.03±0.24 and 4th week=10.02±0.4.

[5] = fingolimod-treated APP/PS1 mice

SP1 R1, sequence (P21453 whole entry): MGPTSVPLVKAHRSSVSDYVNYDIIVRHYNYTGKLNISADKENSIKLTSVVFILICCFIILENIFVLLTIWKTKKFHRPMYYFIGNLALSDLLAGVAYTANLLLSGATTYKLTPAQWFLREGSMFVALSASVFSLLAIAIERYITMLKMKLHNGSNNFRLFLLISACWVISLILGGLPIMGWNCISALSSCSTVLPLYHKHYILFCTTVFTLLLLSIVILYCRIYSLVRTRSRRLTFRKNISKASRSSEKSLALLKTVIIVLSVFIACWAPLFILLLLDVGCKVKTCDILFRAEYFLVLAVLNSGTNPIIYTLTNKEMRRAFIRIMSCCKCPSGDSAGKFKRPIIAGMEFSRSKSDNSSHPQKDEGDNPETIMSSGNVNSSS

Compound: CC(C)Oc1ccc(-c2nc(-c3cccc4c3CC[C@@H]4NCCO)no2)cc1C#N [Ozanimod]
- cognitive processing speed as assessed by the Symbol Digit Modalities Test ([1]; compared to IFNβ1a treatment): improved
- loss of thalamic volume ([1]; compared to IFNβ1a treatment): slower

Compound: FC(F)(F)c1cccc(-c2noc(-c3cc(-c4ccccc4)c(C(F)(F)F)s3)n2)c1 [SEW2871]
- Aβ mediated behavior abnormalities (SP1 R1): improve
- tau phosphorylation (SP1 R1): decrease

Compound: CCc1cc(/C(C)=N/OCc2ccc(C3CCCCC3)c(C(F)(F)F)c2)ccc1CN1CC(C(=O)O)C1 [Siponimod]
- Symbol Digit Modalities Test (SDMT) oral score ([1]; compared with placebo, study months 12 and 24): benefit in favor of Siponimod
- Brief Visuospatial Memory Test-Revised ([1]; compared with placebo): no statistically significant differences between groups
- PASAT score ([1]; compared with placebo): no statistically significant differences between groups
- low contrast visual acuity test ([1]; compared with placebo): small benefit in favor of Siponimod

Compound: CCCCCCCCc1ccc(CCC(N)(CO)CO)cc1 [fingolimod]
- percentage of time spent in the target quadrant (WT and APP/PS1 mice [2]; [5]): 54.81±9.15%
- percentage of time spent in the target quadrant (WT and APP/PS1 mice [2]; fingolimod-treated WT mice): 63.46±11.51%
- NOR discrimination index (NOR-DI) (WT and APP/PS1 mice [3]; [5]): 0.40±0.13
- NOR discrimination index (NOR-DI) (WT and APP/PS1 mice [3]; fingolimod-treated WT mice): 0.47±0.08
- concentration at 2 weeks ([4]; 2nd week): 8.03 ± 0.24 ng/mL
- concentration at 4 weeks ([4]; 4th week): 10 ± 0.4 ng/mL
